In patent US5980913A, “Peptides having immunomodulatory activity” (Biochem Pharma, Inc., priority 1994, dated 1999):
Where a SMILES comes first, the peptide text is derived from it. [ ]: non-standard residue; d: D form.

Experiments:
[1] = tested on: P815 target cells; assay: Cytotoxic T lymphocytes (CTL) assay, 51Cr release, after 5 days mixed culture with drug; type: cell-based, C57BL/6 mice
Excerpt: 1. Cytotoxic T Lymphocytes (CTL) Mixed Lymphocyte Reaction (MLR) and Mitogenic Response Assays
The protocols used are described in Hudson L., Haay F., Pratical immunology, 3rd edition, Blackwell, Scientific publications, Oxford 1989, p. 158-162, and p.447.
Lymphocytes were isolated from C57BL/6 mice and DBA/2 mice in accordance to techniques well known in the art. Cell concentration was adjusted to 10×10^6 cell/ml for each assay. The cells isolated from DBA/2 mice were irradiated with 3000 Rads.
In a 6 well plate, each well was set up with:
The cells were incubated for five days at 37° C. in 5% CO2, after which CTL and MLR assays were performed.
a) Cytotoxic T Lymphocytes (CTL)
P815 target cells were labelled with Cr^51 (0.1 mCi). After labelling, the cells were washed three times and resuspended to a concentration of 5×10^4 cells/ml in media. p T cells were then counted and diluted to obtain a concentration of 2.5×10^6 cells/ml, and then further diluted to obtain the following effector:target ratios:
100 μl of target cells+100 μl of CTLs were incubated for 4 hours. In parallel wells, 100 μl of target cells+100 μl of media were incubated for spntaneous release. After incubation, cells were centrifuged and 100 μl of supernatant was then counted using a gamma counter.
Results are expressed as % specific ^51 Cr release= [formula] where ER=experimental release, SR=spontaneous releaase, and
0 represents less than 20%, + represents 20-40%, ++ represents 40-60%, +++ represent 60-80%, and ++++ represents 80% and over.

[2] = tested on: B cells; assay: Activation of B cells by mitogenic proliferation (LPS, PWM); type: cell-based, C57BL/6 mice
Excerpt: c) Activation of T or B cells by Mitogenic Proliferation
A mitogenic lectin (mitogen) is a glycoprotein which binds and cross-links specific cells surface carbohydrate determinants, and will polyclonally stimulate lymphoid cells. Lymphocyte activation by either antigens or mitogens results in intracellular changes and the subsequent development into a lymphoblast. Mitogenic stimulation of lymphocytes in vitro is believed to mimic the series of events which occur in vivo following their stimulation by specific antigens. PHA and ConA; PWM and LPS mitogens can be used as a measurement of T cell and B cell activity, respectively. Briefly, the spleen mononuclear leukocytes from C57BL/6 mice are incubated in the presence or absence of mitogens with or without candidate drugs. After 72 hours or 5 days, ^3 H-thymidine incorporation is recorded as an indication of cell proliferation.
Lymphocytes were isolated from mice spleen or human blood in accordance to methods well known in the art. 100 μl of cell suspension of 2×10^6 cells/ml was added per well (2x10^5 cells/well) and incubated in the presence of lectin at the following concentrations:
PWM=0.2 to 0.02% final concentration
Cells were incubated for 3 days with PHA or ConA, or 5 days with PWM or LPS. 1 μCi of tritiated thymidine was added to each well for the last 6 hours (or 0.5 μCi for 18 hrs). The cells were harvested in a cell Harvester (Tortech®) and counted in a Beta counter.

[3] = concentration not given, 0 not defined

| SMILES | CTL, % augmentation compared to IL-2 (IL-2 is 100%) ([1]; 10^-7 M) | stimulation of CTL in vitro (in words) ([1]; summary of Table 1) | Activation of B Cells, PWM ([2]; 10^-6 - 10^-4 M) | Activation of B Cells, LPS ([2]; 10^-10 - 10^-4 M) | stimulation of B cells in vitro (in words) ([2]; summary of Table 1) | CTL, % augmentation compared to IL-2 (IL-2 is 100%) ([1]; 10^-9 M) | Activation of B Cells, LPS [2, 3] | Activation of B Cells, PWM [2, 3] |
| --- | --- | --- | --- | --- | --- | --- | --- | --- |
| NCCCC[C@H](N)C(=O)N[C@@H](CC(N)=O)C(=O)N1CCC[C@H]1C(=O)N[C@@H](Cc1ccc(O)cc1)C(=O)O [PEPTIDE #1, H-Lys-Asn-Pro-Tyr-OH] (H-KNPY-OH) | ++ (++ represents 40-60%) | stimulates CTL's | 1.7 - 4 × | 1.9 - 3.6 × | stimulates CTL's and B cells | – | – | – |
| NCCCC[C@@H](N)C(=O)N[C@@H](CC(N)=O)C(=O)N1CCC[C@H]1C(=O)N[C@@H](Cc1ccc(O)cc1)C(=O)O [PEPTIDE #5, H-(D-Lys)-Asn-Pro-Tyr-OH] (H-[dK]NPY-OH) | – | – | – | – | – | ++++ (++++ represents 80% and over) | 0 | 0 |
